Measured values from the supplement of paper PMC10307832.

Assays:
Experiment in all cases: relative viability (nuclei count vs DMSO), 5 days (fraction); higher = more cells survive
[1] = test system: HOP-62
Outline: (§1)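 Lung cancer cell lines, seeded in 1536-well plates, were treated the following day by pin tool with a single drug or with five library-drug doses (not always all listed) in √10 steps on top of a fixed anchor-drug dose. Cells were fixed and nuclei stained in one step after 5 days, and nuclei were counted. Relative viability is the nuclei count for treated wells divided by that for vehicle wells, reported as medians of duplicate plates.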

[2] = test system: SW 1573
Outline: as §1

[3] = test system: NCI-H1755
Outline: as §1

[4] = test system: NCI-H460
Outline: as §1

[5] = test system: NCI-H2228
Outline: as §1

[6] = test system: A-427
Outline: as §1

[7] = test system: LXF-289
Outline: as §1

[8] = test system: HCC-15
Outline: as §1

[9] = test system: NCI-H647
Outline: as §1

[10] = test system: RERF-LC-KJ
Outline: as §1

[11] = test system: PC-3 [JPC-3]
Outline: as §1

[12] = test system: NCI-H1975
Outline: as §1

[13] = test system: LC-2-ad
Outline: as §1

[14] = test system: NCI-H1734
Outline: as §1

[15] = test system: HCC-78
Outline: as §1

[16] = test system: SK-LU-1
Outline: as §1

[17] = test system: NCI-H2126
Outline: as §1

[18] = test system: LOU-NH91
Outline: as §1

[19] = test system: NCI-H1792
Outline: as §1

[20] = test system: NCI-H1915
Outline: as §1

[21] = test system: NCI-H2347
Outline: as §1

CC1(C)CCC(c2ccc(Cl)cc2)=C(CN2CCN(c3ccc(C(=O)NS(=O)(=O)c4ccc(N[C@H](CCN5CCOCC5)CSc5ccccc5)c(S(=O)(=O)C(F)(F)F)c4)cc3)CC2)C1 [Navitoclax] + CC(C)C[C@H](NC(=O)[C@H](Cc1ccccc1)NC(=O)c1cnccn1)B(O)O [Bortezomib] (partner 0.002 µM)
relative viability ([1]; first compound 0.005 µM): 0.575
relative viability ([1]; first compound 0.01581 µM): 0.818
relative viability ([1]; first compound 0.05 µM): 0.82
relative viability ([1]; first compound 0.1581 µM): 0.85
relative viability ([1]; first compound 0.5 µM): 1.1
relative viability ([2]; first compound 0.005 µM): 1.04
relative viability ([2]; first compound 0.01581 µM): 1.24
relative viability ([2]; first compound 0.05 µM): 0.895
relative viability ([2]; first compound 0.1581 µM): 0.796
relative viability ([2]; first compound 0.5 µM): 1.15
relative viability ([3]; first compound 0.005 µM): 0.929
relative viability ([3]; first compound 0.01581 µM): 1.01
relative viability ([3]; first compound 0.05 µM): 0.723
relative viability ([3]; first compound 0.1581 µM): 0.903
relative viability ([3]; first compound 0.5 µM): 0.924
relative viability ([4]; first compound 0.005 µM): 1.1
relative viability ([4]; first compound 0.01581 µM): 1.16
relative viability ([4]; first compound 0.05 µM): 1.4
relative viability ([4]; first compound 0.1581 µM): 1.01
relative viability ([4]; first compound 0.5 µM): 0.983
relative viability ([5]; first compound 0.005 µM): 0.849
relative viability ([5]; first compound 0.01581 µM): 1.33
relative viability ([5]; first compound 0.05 µM): 0.726
relative viability ([5]; first compound 0.1581 µM): 0.804
relative viability ([5]; first compound 0.5 µM): 0.992
relative viability ([6]; first compound 0.005 µM): 1.06
relative viability ([6]; first compound 0.01581 µM): 1.04
relative viability ([6]; first compound 0.05 µM): 0.819
relative viability ([6]; first compound 0.1581 µM): 1.02
relative viability ([6]; first compound 0.5 µM): 0.949
relative viability ([7]; first compound 0.005 µM): 0.989
relative viability ([7]; first compound 0.01581 µM): 1.05
relative viability ([7]; first compound 0.05 µM): 0.928
relative viability ([7]; first compound 0.1581 µM): 0.967
relative viability ([7]; first compound 0.5 µM): 0.959
relative viability ([8]; first compound 0.005 µM): 0.941
relative viability ([8]; first compound 0.01581 µM): 0.995
relative viability ([8]; first compound 0.05 µM): 0.85
relative viability ([8]; first compound 0.1581 µM): 1.06
relative viability ([8]; first compound 0.5 µM): 1
relative viability ([9]; first compound 0.005 µM): 0.686
relative viability ([9]; first compound 0.01581 µM): 1.22
relative viability ([9]; first compound 0.05 µM): 0.866
relative viability ([9]; first compound 0.1581 µM): 0.761
relative viability ([9]; first compound 0.5 µM): 0.863
relative viability ([10]; first compound 0.005 µM): 1.07
relative viability ([10]; first compound 0.01581 µM): 1.14
relative viability ([10]; first compound 0.05 µM): 1
relative viability ([10]; first compound 0.1581 µM): 1.09
relative viability ([10]; first compound 0.5 µM): 1.35
relative viability ([11]; first compound 0.005 µM): 0.757
relative viability ([11]; first compound 0.01581 µM): 0.784
relative viability ([11]; first compound 0.05 µM): 0.732
relative viability ([11]; first compound 0.1581 µM): 0.874
relative viability ([11]; first compound 0.5 µM): 0.822
relative viability ([12]; first compound 0.005 µM): 0.389
relative viability ([12]; first compound 0.01581 µM): 0.354
relative viability ([12]; first compound 0.05 µM): 0.381
relative viability ([12]; first compound 0.1581 µM): 0.258
relative viability ([12]; first compound 0.5 µM): 0.255
relative viability ([13]; first compound 0.005 µM): 0.988
relative viability ([13]; first compound 0.01581 µM): 1.1
relative viability ([13]; first compound 0.05 µM): 0.941
relative viability ([13]; first compound 0.1581 µM): 1.01
relative viability ([13]; first compound 0.5 µM): 1.06
relative viability ([14]; first compound 0.005 µM): 1.05
relative viability ([14]; first compound 0.01581 µM): 1.12
relative viability ([14]; first compound 0.1581 µM): 0.899
relative viability ([14]; first compound 0.5 µM): 1.02
relative viability ([15]; first compound 0.005 µM): 0.582
relative viability ([15]; first compound 0.01581 µM): 0.611
relative viability ([15]; first compound 0.05 µM): 0.404
relative viability ([15]; first compound 0.1581 µM): 0.45
relative viability ([15]; first compound 0.5 µM): 0.469
relative viability ([16]; first compound 0.005 µM): 1.19
relative viability ([16]; first compound 0.01581 µM): 1.12
relative viability ([16]; first compound 0.05 µM): 0.477
relative viability ([16]; first compound 0.1581 µM): 1.09
relative viability ([16]; first compound 0.5 µM): 0.961
relative viability ([17]; first compound 0.005 µM): 1.08
relative viability ([17]; first compound 0.01581 µM): 1.12
relative viability ([17]; first compound 0.05 µM): 1.07
relative viability ([17]; first compound 0.1581 µM): 1.12
relative viability ([17]; first compound 0.5 µM): 1.15
relative viability ([18]; first compound 0.005 µM): 0.418
relative viability ([18]; first compound 0.01581 µM): 0.485
relative viability ([18]; first compound 0.05 µM): 0.391
relative viability ([18]; first compound 0.1581 µM): 0.449
relative viability ([18]; first compound 0.5 µM): 0.339
relative viability ([19]; first compound 0.005 µM): 0.976
relative viability ([19]; first compound 0.01581 µM): 1.01
relative viability ([19]; first compound 0.05 µM): 0.995
relative viability ([19]; first compound 0.1581 µM): 0.964
relative viability ([19]; first compound 0.5 µM): 0.934
relative viability ([20]; first compound 0.005 µM): 0.969
relative viability ([20]; first compound 0.01581 µM): 0.925
relative viability ([20]; first compound 0.05 µM): 0.82
relative viability ([20]; first compound 0.1581 µM): 0.865
relative viability ([20]; first compound 0.5 µM): 0.929
relative viability ([21]; first compound 0.005 µM): 1.71
relative viability ([21]; first compound 0.05 µM): 0.812
relative viability ([21]; first compound 0.1581 µM): 1.03
relative viability ([21]; first compound 0.5 µM): 1.09
